Reference: patent EP0168733A2, “Process for the preparation of quinolinone and naphthyridoncarboxylic acids” (BAYER AG, priority 1984, dated 1986)
Converted amounts (≈) assume the structure as drawn.

How the values were obtained:
Experiment in all cases: Agar dilution test (Isosensitest medium / Denley multipoint inoculator), MIC
Format in all cases: cell-based
[1] = system: Klebsiella pneum. 8085; conditions: read-out: Minimale Hemmkonzentration
Description: (§1) In der nachstehenden Tabelle sind die MHK-Werte einiger der erfindungsgemäßen Verbindungen angegeben.

[2] = system: E. coli T 7; conditions: Escherichia coli, T7, read-out: Minimale Hemmkonzentration
Description: as §1

[3] = system: Proteus morg. 932; conditions: read-out: Minimale Hemmkonzentration
Description: as §1

[4] = system: Proteus vulg. 1017; conditions: read-out: Minimale Hemmkonzentration
Description: as §1

[5] = system: Klebsiella pneum. 63; conditions: read-out: Minimale Hemmkonzentration
Description: as §1

[6] = system: E. coli Neum.; conditions: Escherichia coli, read-out: Minimale Hemmkonzentration
Description: as §1

[7] = system: Staphylococcus aur. 133; conditions: read-out: Minimale Hemmkonzentration
Description: as §1

| Structure (SMILES) | MIC [1] | MIC [2] | MIC [3] | MIC [4] | MIC [5] | MIC [6] | MIC [7] |
| --- | --- | --- | --- | --- | --- | --- | --- |
| O=C(O)c1cn(C2CC2)c2cc([N+](=O)[O-])c(Cl)cc2c1=O [Beispiel 1, 6-Chlor-1-cyclopropyl-7-nitro-1,4-dihydro-4-oxo-3-chinolincarbonsäure] | 32 µg/mL (≈ 104 µM) | 64 µg/mL (≈ 207 µM) | > 128 µg/mL | > 128 µg/mL | > 128 µg/mL | 32 µg/mL (≈ 104 µM) | > 128 µg/mL |
| CN(C)n1cc(C(=O)O)c(=O)c2ccccc21 [Beispiel 4, 1-Dimethylamino-1,4-dihydro-4-oxo-3-chinolincarbonsäure] | 64 µg/mL (≈ 276 µM) | 64 µg/mL (≈ 276 µM) | 128 µg/mL (≈ 551 µM) | 128 µg/mL (≈ 551 µM) | > 128 µg/mL | 32 µg/mL (≈ 138 µM) | > 128 µg/mL |
| O=C(O)c1cn(C2CC2)c2cccc([N+](=O)[O-])c2c1=O [Beispiel 6, 1-Cyclopropyl-5-nitro-1,4-dihydro-4-oxo-3-chinolincarbonsäure] | 128 µg/mL (≈ 467 µM) | 32 µg/mL (≈ 117 µM) | 64 µg/mL (≈ 233 µM) | 64 µg/mL (≈ 233 µM) | 128 µg/mL (≈ 467 µM) | 32 µg/mL (≈ 117 µM) | > 128 µg/mL |
| O=C(O)c1cn(C2CC2)c2cc([N+](=O)[O-])ccc2c1=O [Beispiel 7, 1-Cyclopropyl-7-nitro-1,4-dihydro-4-oxo-3-chinolincarbonsäure] | 0.06 µg/mL (≈ 0.219 µM) | – | 0.25 µg/mL (≈ 0.912 µM) | 0.25 µg/mL (≈ 0.912 µM) | 0.5 µg/mL (≈ 1.82 µM) | – | 32 µg/mL (≈ 117 µM) |
